Assay results taken from patent publication US9045445B2, “Glycine transporter-1 inhibitors, methods of making them, and uses thereof” (Albany Molecular Research, Inc., priority 2010, dated 2015).
pIC50: −log10 of the molar value. Where a name gives a salt, the structure may show the parent alone.

Key:
[1] = target: T1, glycine transporter-2 (GlyT-2) (Homo sapiens, UniProt Q9Y345); assay: [14C]glycine uptake assay in HEK-GlyT-2 transfected cells; format: cell-based; settings: HEK-GlyT-2 cells
T1 construct: expressed in transfected cells
T1 sequence (Q9Y345 1-797): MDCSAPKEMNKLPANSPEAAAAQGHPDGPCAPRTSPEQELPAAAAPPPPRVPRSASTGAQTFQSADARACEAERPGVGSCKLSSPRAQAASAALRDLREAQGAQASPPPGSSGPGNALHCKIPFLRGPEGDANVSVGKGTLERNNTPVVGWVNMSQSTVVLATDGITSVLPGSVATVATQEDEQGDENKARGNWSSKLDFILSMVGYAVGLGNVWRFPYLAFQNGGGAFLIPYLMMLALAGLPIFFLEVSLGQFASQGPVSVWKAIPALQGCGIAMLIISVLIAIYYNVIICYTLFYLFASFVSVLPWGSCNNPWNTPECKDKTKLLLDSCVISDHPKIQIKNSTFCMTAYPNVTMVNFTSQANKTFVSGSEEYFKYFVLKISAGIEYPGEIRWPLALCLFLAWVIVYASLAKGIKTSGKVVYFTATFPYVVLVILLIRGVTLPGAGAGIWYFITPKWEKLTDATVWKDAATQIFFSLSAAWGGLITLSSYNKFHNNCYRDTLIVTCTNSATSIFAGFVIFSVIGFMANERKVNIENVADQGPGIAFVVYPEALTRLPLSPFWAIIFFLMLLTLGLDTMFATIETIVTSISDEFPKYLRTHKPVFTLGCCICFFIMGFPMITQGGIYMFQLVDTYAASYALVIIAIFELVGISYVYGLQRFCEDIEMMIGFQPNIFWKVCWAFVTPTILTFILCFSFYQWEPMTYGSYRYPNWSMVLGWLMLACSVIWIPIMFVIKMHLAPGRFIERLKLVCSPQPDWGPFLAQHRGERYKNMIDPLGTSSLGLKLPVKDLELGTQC

[2] = target: T2, glycine transporter-1 (GlyT-1) (Homo sapiens, UniProt P48067); assay: [14C]glycine uptake assay in JAR cells endogenously expressing GlyT-1 (scintillation proximity); format: cell-based; settings: JAR cells, [14C]glycine 5 μM, 3 hour incubation; read-out: GlyT-1 IC50
T2 construct: JAR cells (ATCC#HTB-144), which endogenously express GlyT-1; host or cells: JAR human choriocarcinoma cells
T2 sequence (P48067 1-706): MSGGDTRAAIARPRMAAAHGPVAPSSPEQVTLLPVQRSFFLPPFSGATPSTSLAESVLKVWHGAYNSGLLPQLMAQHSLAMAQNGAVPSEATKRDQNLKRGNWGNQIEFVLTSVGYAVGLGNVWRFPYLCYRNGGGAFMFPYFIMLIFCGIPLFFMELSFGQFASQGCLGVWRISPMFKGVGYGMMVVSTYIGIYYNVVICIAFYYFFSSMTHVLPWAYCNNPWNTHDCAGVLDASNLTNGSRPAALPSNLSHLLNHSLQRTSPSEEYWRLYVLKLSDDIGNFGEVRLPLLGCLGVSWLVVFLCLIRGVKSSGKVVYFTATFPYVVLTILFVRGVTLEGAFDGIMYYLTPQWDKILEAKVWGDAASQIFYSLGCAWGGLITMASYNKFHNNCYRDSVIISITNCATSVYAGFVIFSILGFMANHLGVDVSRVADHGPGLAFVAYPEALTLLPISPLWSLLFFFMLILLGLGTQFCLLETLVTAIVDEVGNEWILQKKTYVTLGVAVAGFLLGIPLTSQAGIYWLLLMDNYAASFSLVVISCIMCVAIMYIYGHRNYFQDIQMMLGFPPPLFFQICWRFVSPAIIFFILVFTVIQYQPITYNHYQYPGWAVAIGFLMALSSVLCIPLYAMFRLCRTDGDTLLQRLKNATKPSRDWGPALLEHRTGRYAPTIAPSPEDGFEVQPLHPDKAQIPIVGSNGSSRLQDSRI
In short: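 IC50 comes from a four-parameter fit of nine-point, duplicate curves measuring inhibition of 5 μM [14C]glycine uptake, read by scintillation proximity after 3 h at 37 °C. Cells are human JAR, which express GlyT-1 endogenously, given 10 min compound pre-treatment in pH 7.4 buffer with 5 mM alanine and 0.75% DMSO.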

SMILES	pIC50 [1]	pIC50 [2]
COc1cc(F)cc(C)c1C(=O)NCC1(N2CCN(S(=O)(=O)CC3CC3)CC2)CCCCCC1 [compound 86, N-((1-(4-(Cyclopropylmethyl-sulfonyl)piperazin-1-yl)cycloheptyl)methyl)-4-fluoro-2-methoxy-6-methylbenzamide Hydrochloride]	< 4.12	7.00
CCS(=O)(=O)N1CCN(C2(CNC(=O)c3c(C)cc(F)cc3OC)CCCCCC2)CC1 [compound 87, N-((1-(4-(Ethylsulfonyl)piperazin-1-yl)cycloheptyl)methyl)-4-fluoro-2-methoxy-6-methylbenzamide Hydrochloride]	< 4.12	6.81
CCS(=O)(=O)N1CCN(C2(CNC(=O)c3c(Cl)cccc3Cl)CCCCCC2)CC1 [compound 88, 2,6-Dichloro-N-((1-(4-(ethylsulfonyl)piperazin-1-yl)cycloheptyl)methyl) benzamide Hydrochloride]	< 4.12	6.71
Nc1cccc(Cl)c1C(=O)NCC1(N2CCN(S(=O)(=O)c3ccccc3)CC2)CCCCC1 [compound 89, 2-Amino-6-chloro-N-((1-(4-(phenylsulfonyl)piperazin-1-yl)cyclohexyl)methyl) benzamide Hydrochloride]	< 4.12	5.64
CS(=O)(=O)N1CCN(C2(CNC(=O)c3c(N)cccc3Cl)CCCCC2)CC1 [compound 90, 2-Amino-6-chloro-N-((1-(4-(methylsulfonyl)piperazin-1-yl)cyclohexyl)methyl) benzamide Hydrochloride]	< 4.12	6.47
O=C(NCC1(N2CCN(S(=O)(=O)C3CCC3)CC2)CCCCC1)c1ccc(Cl)cc1Cl [compound 93, 2,4-Dichloro-N-((1-(4-(cyclobutylsulfonyl)piperazin-1-yl)cyclohexyl)methyl)benzamide Hydrochloride]	< 4.12	6.50
Cc1ccc(C(=O)NCC2(N3CCN(S(=O)(=O)c4cn(C)cn4)CC3)CCCCC2)c(C)c1 [compound 94, 2,4-Dimethyl-N-((1-(4-(1-methyl-1H-imidazol-4-ylsulfonyl)piperazin-1-yl)cyclohexyl)methyl) benzamide Hydrochloride]	< 4.12	7.89
Cc1cccc(C)c1C(=O)NCC1(N2CCN(S(=O)(=O)c3cn(C)cn3)CC2)CCCCC1 [compound 95, 2,6-Dimethyl-N-((1-(4-(1-methyl-1H-imidazol-4-ylsulfonyl)piperazin-1-yl)cyclohexyl)methyl) benzamide Hydrochloride]	< 4.12	9.00
COc1cccc(F)c1C(=O)NCC1(N2CCN(S(=O)(=O)c3cn(C)cn3)CC2)CCCCC1 [compound 96, 2-Fluoro-6-methoxy-N-((1-(4-(1-methyl-1H-imidazol-4-ylsulfonyl)piperazin-1-yl)cyclohexyl)methyl) benzamide Hydrochloride]	< 4.12	8.70
Cn1cnc(S(=O)(=O)N2CCN(C3(CNC(=O)c4ccc(Cl)cc4Cl)CCCCC3)CC2)c1 [compound 97, 2,4-Dichloro-N-((1-(4-(1-methyl-1H-imidazol-4-ylsulfonyl)piperazin-1-yl)cyclohexyl)methyl) benzamide Hydrochloride]	< 4.12	8.70
Cn1cnc(S(=O)(=O)N2CCN(C3(CNC(=O)c4c(F)cccc4F)CCCCC3)CC2)c1 [compound 98, 2,6-Difluoro-N-((1-(4-(1-methyl-1H-imidazol-4-ylsulfonyl)piperazin-1-yl)cyclohexyl)methyl) benzamide Hydrochloride]	< 4.12	8.40
Cn1cnc(S(=O)(=O)N2CCN(C3(CNC(=O)c4c(N)cccc4Cl)CCCCC3)CC2)c1 [compound 99, 2-Amino-6-chloro-N-((1-(4-(1-methyl-1H-imidazol-4-ylsulfonyl)piperazin-1-yl)cyclohexyl)methyl) benzamide Hydrochloride]	< 4.12	8.70
Cn1cnc(S(=O)(=O)N2CCN(C3(CNC(=O)c4ccc(F)cc4F)CCCCC3)CC2)c1 [compound 100, 2,4-Difluoro-N-((1-(4-(1-methyl-1H-imidazol-4-ylsulfonyl)piperazin-1-yl)cyclohexyl)methyl) benzamide Hydrochloride]	< 4.12	7.52

Results, then the molecule that gave them:

pIC50 [1]	pIC50 [2]	SMILES
< 4.12	6.57	CCCS(=O)(=O)N1CCN(C2(CNC(=O)c3c(C)cc(F)cc3OC)CCCC2)CC1 [compound 75, 4-Fluoro-2-methoxy-6-methyl-N-((1-(4-(propylsulfonyl)piperazin-1-yl)cyclopentyl)methyl) benzamide Hydrochloride]
< 4.52	6.74	CCCS(=O)(=O)N1CCN(C2(CNC(=O)c3c(N)cccc3Cl)CCCC2)CC1 [compound 77, 2-Amino-6-chloro-N-((1-(4-(propylsulfonyl)piperazin-1-yl)cyclopentyl)methyl) benzamide Hydrochloride]
< 4.12	7.54	COc1cc(F)cc(C)c1C(=O)NCC1(N2CCN(S(=O)(=O)CC3CC3)CC2)CCCCC1 [compound 79, N-((1-(4-(Cyclopropylmethyl-sulfonyl)piperazin-1-yl)cyclohexyl)methyl)-4-fluoro-2-methoxy-6-methylbenzamide Hydrochloride]
< 4.12	7.54	Cc1cccc(F)c1C(=O)NCC1(N2CCN(S(=O)(=O)CC3CC3)CC2)CCCCC1 [compound 80, N-((1-(4-(Cyclopropylmethyl-sulfonyl)piperazin-1-yl)cyclohexyl)methyl)-2-fluoro-6-methylbenzamide Hydrochloride]
< 4.12	7.21	O=C(NCC1(N2CCN(S(=O)(=O)CC3CC3)CC2)CCCCC1)c1c(F)cccc1F [compound 81, N-((1-(4-(Cyclopropylmethyl-sulfonyl)piperazin-1-yl)cyclohexyl)methyl)-2,6-difluorobenzamide Hydrochloride]
< 4.12	7.30	COc1cc(F)cc(SC)c1C(=O)NCC1(N2CCN(S(=O)(=O)CC3CC3)CC2)CCCCC1 [compound 82, N-((1-(4-(Cyclopropylmethyl-sulfonyl)piperazin-1-yl)cyclohexyl)methyl)-4-fluoro-2-methoxy-6-(methylthio)benzamide Hydrochloride]
< 4.12	7.24	COc1cccc(F)c1C(=O)NCC1(N2CCN(S(=O)(=O)CC3CC3)CC2)CCCCC1 [compound 83, N-((1-(4-(Cyclopropylmethyl-sulfonyl)piperazin-1-yl)cyclohexyl)methyl)-2-fluoro-6-methoxybenzamide Hydrochloride]
< 4.12	7.25	O=C(NCC1(N2CCN(S(=O)(=O)CC3CC3)CC2)CCCCC1)c1ccc(Cl)cc1Cl [compound 84, 2,4-Dichloro-N-((1-(4-(cyclopropylmethyl-sulfonyl)piperazin-1-yl)cyclohexyl)methyl) benzamide Hydrochloride]
< 4.12	6.74	Cc1cc(F)ccc1C(=O)NCC1(N2CCN(S(=O)(=O)CC3CC3)CC2)CCCCCC1 [compound 85, N-((1-(4-(Cyclopropylmethyl-sulfonyl)piperazin-1-yl)cycloheptyl)methyl)-4-fluoro-2-methylbenzamide Hydrochloride]
4.26	6.02	CC(C)CS(=O)(=O)N1CCN(C2(CNC(=O)c3c(N)cccc3Cl)CCCCC2)CC1 [compound 92, 2-Amino-6-chloro-N-((1-(4-(isobutylsulfonyl)piperazin-1-yl)cyclohexyl)methyl) benzamide Hydrochloride]
